This note sets out measurements from patent publication US10968214B2, “KRas G12C inhibitors” (Eli Lilly and Company, priority 2018, dated 2021).

Each structure is given as a SMILES string. Read-outs that look alike come from different tables or passages of the source.

Holding throughout (type): cell-based
Assay [1] relates to UM-UC-3. In words: Combination 4 day growth assay (Cell TiterGlo), UM-UC-3. The conditions noted are these: Homo sapiens, UMUC3, 96 h, single treatment, read-out: Absolute IC50. The procedure: (§1) Cell lines for this study are obtained from ATCC and grown under ATCC recommended conditions, except for LXFA-983L, which is obtained from Oncotest/Charles Rivers Laboratories, Wilmington, Mass. and D122-96, which is obtained from L. Eisenbach (Weizman Institute of Science, Rehovot, Israel)—both grown under recommended conditions. […] The proliferation assay is performed as a 4 day growth assay using Cell TiterGlo® as the readout. Briefly, cells are plated in 96-well cell culture plates and allowed to adhere overnight at 37° C. The following day, cells are treated with compounds, either single treatments or combination treatments. First, the testing compounds are serially diluted in DMSO, followed by dilution into media as a 5× concentration with 1% DMSO, and finally added to cells in media to dilute to 1×. The cells are incubated at 37° C. for 4 more days. At the end of the incubation period, Cell TiterGlo® reagent is mixed and added to the wells. After 10 minutes, the luminescence is read by a Perkin Elmer Envision instrument. Absolute IC50 values generated by a 4-parameter logistics model for the single and combination treatments are generated, followed by combination indexes for each combination treatment and cell line. The combination IC50 values are adjusted based on the total concentration of each compound when added together. […] The combination index (CI) measures the degree to which the potency of a combination therapy differs from the expected-if-additive potency and is based on the Loewe definition of additivity.
(§2) [formula] Where • CAy and CBy are the concentrations of therapies A and B that produce an effect, y, when given in combination • ICAy and ICBy are the concentrations of A and B that produce an effect, y, when given individually The biological interpretation of the combination index is as follows: synergistic if the combination index <0.5, additive if the combination index is between 0.5 and 2, and antagonistic if the combination index is >2.
In general terms: ATP-based viability assays read luminescence as a measure of living cells.

Assay [2] deals with SW1573. In words: Combination 4 day growth assay (Cell TiterGlo), SW1573. As to conditions: Homo sapiens, 96 h, single treatment, read-out: Absolute IC50. The procedure: as §1, §2
Assay [3] concerns H1792. The experiment in a line: CellTiterGlo Cell Proliferation Assay, H1792. As to conditions: Homo sapiens, NCI-H1792, KRas G12C, Lung, 96 hr. How it is done: (§3) A panel of tumor cell lines harboring KRas G12C or other KRas mutations are collected (Table 6). All cell lines are from ATCC or other sources indicated.
(§4) Typically cells are cultured in RPMI1640 or Dulbecco's modified Eagle's medium (DMEM, GIBCO) supplemented with 10% FBS (GIBCO, Invitrogen). For 2D culture cells (4×10^3/well) maintained in growth medium described above, are plated onto 96 well tissue culture plates Corning® Cat. 3603) a day before the treatment. For 3D culture 8000 cells/well are seeded onto 96 well ultra-low attachment tissue culture plates (Corning, #3474). The cells are treated compound for 96 hr, and then are analyzed for viability using the CellTiterGlo® Luminescent Cell Viability Assay® (Promega #G7572 for 2D and Promega #G9683 for 3D cultures) according to manufacturer's instructions and an EnVision™ plate reader. Nonlinear regression and sigmoidal dose-response curves are used to calculate the half maximal inhibitory concentration (IC50) with GraphPad Prism 4® software.

Assay [4] concerns H1373. In words: CellTiterGlo Cell Proliferation Assay, H1373. The conditions noted are these: Homo sapiens, NCI-H1373, KRas G12C, Lung, 96 hr. How it is done:
as §3, §4

The mark [5] stands for this setting: read-out: IC50 (μM) in 2 D cell proliferation.
Where [6] appears, read: read-out: IC50 (μM) in 3 D spheroid cell proliferation.

On to `C=CC(=O)N1CCN(c2ncnc3c(F)c(-c4ccc(F)c5sc(N)nc45)c(Cl)cc23)CC1` [Example 1, 1-{4-[7-(2-Amino-7-fluoro-1,3-benzothiazol-4-yl)-6-chloro-8-fluoroquinazolin-4-yl]piperazin-1-yl}prop-2-en-1-one], for which the IC50 was 1.83 µM in assay [1]; more than 10 µM in assay [2]; 3.93 µM in assay [3] (setting [5]); 3.84 µM in assay [3] (setting [6]); 0.209 µM in assay [4] (setting [5]); 0.02 µM in assay [4] (setting [6]).
